Measurements taken from patent US20080214521A1, “Sensitization of Drug-Resistant Lung Caners to Protein Kinase Inhibitors” (priority 2005, published 2008).

Legend:
lung cancer xenograft = settings: mouse, in vivo; cited from earlier work
[1] = test system: NSCLC cell lines expressing BAK under the control of a tetracycline-regulated promoter; assay: Apoptosis induced by PKC inhibitors with conditional BAK expression (DOX), sub-G1 / TMRE / caspase cleavage immunoblot; type: cell-based; settings: drug-resistant NSCLC cells (A549, NCI-H1299), 48 hours
Procedure: NSCLC cell lines known in the art were obtained. Unless otherwise specified, NSCLC cells were grown on tissue culture dishes (BD Falcon) in Dulbecco's Modified Eagle Medium supplemented with 10% fetal bovine serum, glucose, L-glutamine and penicillin/streptomycin in a humidified atmosphere at 5% CO2. NSCLC cells conditionally expressing transgenic BAK were obtained using the BD RevTet-On vector system (BD Clontech). A BamHI fragment encoding the full length human BAK cDNA was generated by PCR, confirmed by sequencing, and cloned into the pRevTRE vector. A retroviral BCL-XL expression vector has been described previously (26). Replication-defective retroviral virions were produced by standard calcium phosphate transfection in the FNX ampho packaging cell line (a gift from Dr G. P. Nolan, Stanford). Transductions were performed using filtered supernatants, and populations were selected with hygromycin B and puromycin in the absence of tetracycline, or were obtained by fluorescence activated cell sorting (Coulter) of EGFP-positive cells. […]
Cells with subdiploid DNA content (sub-G1) were quantified by flow cytometry after 48 hours. […] Cells that maintained Δψm (TMRE+) were quantified by TMRE-staining and flow cytometry after 48 hours. […] Whole cell extracts were obtained at 24 hours, and the cleavage of caspase-9, caspase-3 and the caspase substrate PARP was detected by immunoblotting.

NCI-H1299 cells = assay: Drug synergy analysis, PKC412 with etoposide (VP16), sub-G1 flow cytometry
A549 cells = assay: as above; type: cell-based
Procedure: (§1) All other drugs were purchased from Sigma.
(§2) After 48 hours, the fraction of cells with subdiploid DNA content (sub-G1) was quantified by flow cytometry. DMSO-treated cells (white bars) served as negative controls.

NCI-H460 cells = assay: as above; type: cell-based; settings: simultaneous 25 μM etoposide and escalating PKC412 (0-100 μM), 48 hours
Procedure: as §1, §2

[2] = phase I study, cited from earlier work
[3] = test system: phosphorylation of protein kinase B/AKT and glycogen synthase kinase 3-beta; assay: Immunoblotting of downstream targets of PKC signal transduction after PMA stimulation; type: cell-based; settings: drug-resistant and drug-sensitive cell lines; PKC412 1 to 10 μM for 2 hours, then PMA 1 μM 10 minutes
Procedure: Immunoblotting and cell fractionation was performed as described previously (38, 39) using primary antibodies against caspase-9 (Chemicon), caspase-3, BCL-XL, cytochrome c (BD Pharmingen), BAX, BAK, PARP (Upstate), AKT, phospho-AKT, GSK-3beta, phospho-GSK3beta (Cell Signaling), and actin (ICN).

NCI-H1299 = assay: Cell cycle distribution by flow cytometry; type: cell-based; settings: 50 μM PKC412, 24 hours
cancer cell lines = settings: cited from earlier work
[4] = test system: NSCLC cells expressing BAK under the control of a tetracycline-regulated promoter; assay: Apoptosis facilitated by conditionally expressed transgenic BAK; type: cell-based; settings: BAK induced by DOX; data not shown
[5] = simultaneous 25 μM etoposide and escalating PKC412 (0-100 μM), 48 hours

Q: What does the source list for CO[C@@H]1[C@H](N(C)C(=O)c2ccccc2)C[C@H]2O[C@]1(C)n1c3ccccc3c3c4c(c5c6ccccc6n2c5c31)C(=O)NC4 [PKC412, N-[(9S,10R,11R,13R)-2,3,10,11,12,13-hexahydro-10-methoxy-9-methyl-1-oxo-9,13-epoxy-1H,9H-diindolo[1,2,3-gh:3′,2′,1′-Im]pyrrolo[3,4j][1,7]benzodiazonin-11-yl]-N-methylbenzamide]?
A: effects in murine xenograft model of lung cancer (lung cancer xenograft): antitumoral and antiangiogenic effects; sensitisation to PKC412-mediated apoptosis by inducible expression of BAK [1]: Sensitized; apoptosis induced by VP16 given subsequently to PKC412 (NCI-H1299 cells; 50 μM PKC412 24 hours, then 25 μM etoposide another 24 hours): reduced the amount of apoptosis; effect of PKC412 on VP16-induced apoptosis (NCI-H1299 cells; [5]): protected NCI-H1299 cells against VP16-induced apoptosis; apoptosis after PKC412 pre-treatment versus VP16 pre-treatment (A549 cells; 50 μM PKC412 and 25 μM etoposide, sequential, 24 hours each): did not significantly differ; cytotoxicity of combined treatment with PKC412 and VP16 (A549 cells; [5]): additive cytotoxicity; apoptosis with PKC412 plus VP16 compared to VP16 alone (NCI-H460 cells): no further increase in apoptosis; safety of combination with CDDP/gemcitabine ([2]; patients with advanced NSCLC, with standard cytotoxic regimen of CDDP/gemcitabine): established; safety and feasibility of oral administration ([2]; patients with advanced cancers, oral): safe and feasible; phosphorylation of downstream targets of PKC signal transduction (AKT, GSK-3beta) [3]: effectively reduced; cell cycle distribution after pre-treatment with PKC412 (NCI-H1299): cell cycle arrest in the G2/M-phase; effect on cancer cell lines (cancer cell lines): induced cell cycle arrest or apoptosis

Q: With CN[C@@H]1C[C@H]2O[C@@](C)([C@@H]1OC)n1c3ccccc3c3c4c(c5c6ccccc6n2c5c31)C(=O)NC4 [staurosporine] as the compound, how does the “effects in murine xenograft model of lung cancer” value (lung cancer xenograft) read?
A: antitumoral and antiangiogenic effects

Q: And the “effect on cancer cell lines” value (cancer cell lines)?
A: induced cell cycle arrest or apoptosis

Q: Which “effect on apoptosis facilitated by transgenic BAK” value [4] does the source give for zVAD-fmk here?
A: inhibited
